Literature values in patent publication US20080305060A1, “AQUEOUS-ALCOHOLIC DEPIGMENTING GELS” (GALDERMA RESEARCH & DEVELOPMENT, priority 2005, published 2008).
Read-outs that look alike come from different tables or passages of the source.

Oc1ccc(O)cc1 [hydroquinone]
Incidence of irritation (10% hydroquinone concentration): relatively high | Incidence of irritation (hydroquinone concentration of 2%): virtually nonexistent | Incidence of irritation (preparations with a 5% dose of hydroquinone): reduces greatly
